These results are taken from patent US5279812A, “Radiolabeled anticoagulant peptides” (Merrell Dow Pharmaceuticals Inc., priority 1991, dated 1994).

Each structure is given as a SMILES string. pIC50: −log10 of the molar value. Bounds are passed on as bounds.

In the test the target is T1, Bovine thrombin (Bos taurus, UniProt P00735).
T1 construct: Bovine thrombin was titrated to an appropriate concentration
Nature of the test: thrombin induced fibrin clot inhibition assay. Format: biochemical. The following applies: read-out: In vitro potency.

Experimental: Samples were tested in a thrombin induced fibrin clot inhibition assay. All the solutions of the assay were made with an assay buffer containing 0.12 M sodium chloride, 0.01 M sodium phosphate, 0.01% sodium azide and 0.1% bovine serum albumin, pH 7.4. […] This solution of thrombin (50 ul; 0.2 pmol) was added to the wells of a microtiter plate containing 50 ul of a solution of the synthetic peptide being tested. […] The turbidity of the solution was monitored by the autoreader at 5 min intervals. […] For the assays using human or bovine thrombin, thrombin was titrated to concentrations that gave the fibrin clot at the same rate over a 30 min period.

As to `CC[C@H](C)[C@H](NC(=O)[C@@H]1CCCN1C(=O)[C@H](CCC(=O)O)NC(=O)[C@H](Cc1cc(I)c(O)c(I)c1)NC(=O)CCC(=O)O)C(=O)N1CCC[C@H]1C(=O)N[C@@H](CCC(=O)O)C(=O)N[C@@H](CCC(=O)O)C(=O)N[C@@H](C)C(=O)N[C@@H](CC1CCCCC1)C(=O)N[C@H](CCC(=O)O)C(=O)O` [Example 1], the pIC50 was more than 4.60.
